What was measured:
[1] = system: neointima formation; settings: rats; cited from earlier work
[2] = target: FGF receptor (FGFr) tyrosine kinase (Homo sapiens, UniProt P11362); assay: Assay for Inhibition of FGFr; type: biochemical; settings: 50 μM ATP, Poly (4:1) glutamate-tyrosine substrate, 25° C.
Method: (§1) The assays were carried out as described below.
Assay for Inhibition of FGFr
For FGF receptor (FGFr) tyrosine kinase assays 96-well plates (100 μL/incubation/well), and conditions are optimized to measure the incorporation of ^32P from [γ^32P]ATP into a glutamate-tyrosine co-polymer substrate. Briefly, to each well is added 82.5 μL incubation buffer B (25 mM Hepes (pH 7.0), 150 mM NaCl, 0.1% Triton X-100, 0.2 mM PMSF, 0.2 mM Na3VO4, 10 mM MnCl2) and 750 μg/mL Poly (4:1) glutamate-tyrosine followed by 2.5 μL of the test compound in buffer B and 5 μL of a 7.5 μg/μL FGFr solution to initiate the reaction. Following a 10-minute incubation at 25° C., […] [γ^32P]ATP (0.4 μCi plus 50 μM ATP) is added to each well, and samples are incubated for an additional 10 minutes at 25° C. The reaction is terminated by the addition of 100 μL 30% trichloroacetic acid (TCA) containing 20 mM sodium pyrophosphate and precipitation of material onto glass fiber mats (Wallac). […] Nonspecific activity is defined as radioactivity retained on the filters following incubation of samples with buffer alone (no enzyme). Specific enzymatic activity (enzyme plus buffer) is defined as total activity minus nonspecific activity.

[3] = target: Cdk2/Cyclin A (Homo sapiens, UniProt P24941); assay: Assay for Inhibition of Cdk2/Cyclin A; type: biochemical; settings: 12 mM ATP (so in the source), retinoblastoma protein substrate, 25° C., 15 minutes
Method: as §1
Assay for Inhibition of Cdk2/Cyclin A
Cdk2 enzyme assays for IC50 determinations and kinetic evaluation are performed as follows. 96-well filter plates (Millipore MADVN6550) are used. […] All components except the ATP are added to the wells, and the plate is placed on a plate mixer for 2 minutes. The reaction is initiated by addition of [^32P]ATP, and the plate is incubated at 25° C. for 15 minutes. The reaction is terminated by addition of 0.1 mL 20% TCA. The plate is kept at 4° C. for at least 1 hour to allow the substrate to precipitate. The wells are then washed five times with 0.2 mL 10% TCA, and ^32P incorporation is determined with a beta plate counter (Wallac Inc., Gaithersburg, Md.).

[4] = target: Cdk4/Cyclin D (Homo sapiens, UniProt P11802); assay: Assay for Inhibition of Cdk4/Cyclin D; type: biochemical; settings: 25 μM ATP, retinoblastoma protein substrate, 25° C., 15 minutes
Method: as §1
Assay for Inhibition of Cdk4/Cyclin D
The Cdk4 enzyme assay for IC50 determination and kinetic evaluation is performed as follows. 96-well filter plates (Millipore MADVN6550) are used. […] Buffer A containing excess EDTA was used to determine the level of background ^32P in the absence of enzyme activity. All components except the ATP are added to the wells, and the plate is placed on a plate mixer for 2 minutes. The reaction is started by adding [^32P]ATP, and the plate is incubated at 25° C. for 15 minutes. The reaction is terminated by addition of 0.1 mL 20% trichloroacetic acid (TCA). The plate is kept at 4° C. for at least 1 hour to allow the substrate to precipitate. The wells are then washed five times with 0.2 mL 10% TCA, and ^32P incorporation is determined with a beta plate counter (Wallac Inc., Gaithersburg, Md.).

Cdk4/Cyclin D, sequence (P11802 whole entry, species assumed): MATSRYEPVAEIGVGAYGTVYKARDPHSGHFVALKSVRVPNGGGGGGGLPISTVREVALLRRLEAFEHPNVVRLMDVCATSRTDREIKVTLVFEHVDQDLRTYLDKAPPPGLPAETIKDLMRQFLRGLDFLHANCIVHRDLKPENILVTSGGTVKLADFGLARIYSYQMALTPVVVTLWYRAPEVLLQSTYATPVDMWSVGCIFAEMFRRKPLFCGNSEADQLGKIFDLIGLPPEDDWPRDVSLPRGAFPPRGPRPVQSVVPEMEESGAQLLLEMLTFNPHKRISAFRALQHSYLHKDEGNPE
Cdk4/Cyclin D, sequence (P24385 whole entry partner, species assumed): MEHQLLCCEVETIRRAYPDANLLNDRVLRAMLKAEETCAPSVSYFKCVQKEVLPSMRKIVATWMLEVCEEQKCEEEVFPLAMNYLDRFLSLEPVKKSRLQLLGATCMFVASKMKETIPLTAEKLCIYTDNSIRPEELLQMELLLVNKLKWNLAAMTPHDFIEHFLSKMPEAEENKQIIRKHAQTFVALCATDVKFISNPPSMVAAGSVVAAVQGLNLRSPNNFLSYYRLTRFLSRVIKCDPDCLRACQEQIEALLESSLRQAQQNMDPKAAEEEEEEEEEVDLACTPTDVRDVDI
FGF receptor (FGFr) tyrosine kinase, sequence (P11362 22-822): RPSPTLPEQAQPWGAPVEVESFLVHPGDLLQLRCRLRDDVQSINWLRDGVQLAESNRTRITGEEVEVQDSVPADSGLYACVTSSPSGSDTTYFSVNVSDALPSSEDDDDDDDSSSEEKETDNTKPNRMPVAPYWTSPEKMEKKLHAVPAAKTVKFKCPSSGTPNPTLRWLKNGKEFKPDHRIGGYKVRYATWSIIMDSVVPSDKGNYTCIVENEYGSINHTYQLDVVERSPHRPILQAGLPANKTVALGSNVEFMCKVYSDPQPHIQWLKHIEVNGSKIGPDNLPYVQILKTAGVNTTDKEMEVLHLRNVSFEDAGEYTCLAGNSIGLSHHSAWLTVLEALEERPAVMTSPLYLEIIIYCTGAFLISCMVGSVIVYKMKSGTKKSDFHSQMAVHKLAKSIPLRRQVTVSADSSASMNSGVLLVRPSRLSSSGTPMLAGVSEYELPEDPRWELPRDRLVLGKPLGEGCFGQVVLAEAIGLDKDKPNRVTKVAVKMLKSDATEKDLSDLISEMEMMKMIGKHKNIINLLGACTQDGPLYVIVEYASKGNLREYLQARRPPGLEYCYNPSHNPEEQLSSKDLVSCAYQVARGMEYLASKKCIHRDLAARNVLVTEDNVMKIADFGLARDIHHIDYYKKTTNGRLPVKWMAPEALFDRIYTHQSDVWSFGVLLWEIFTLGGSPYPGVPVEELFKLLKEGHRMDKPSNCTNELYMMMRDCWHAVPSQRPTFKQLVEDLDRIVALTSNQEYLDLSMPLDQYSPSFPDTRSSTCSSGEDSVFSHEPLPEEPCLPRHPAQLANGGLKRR

IC50 [2] [µM]	IC50 [3] [µM]	melting point [°C]	IC50 [4] [µM]	SMILES	inhibition of neointima formation [1]
–	–	–	–	COc1ccc(CNc2nc(N(CCO)CCO)nc3c2ncn3C(C)C)cc1 [CVT-313]	greater than 80%
> 5	> 5	138	0.024	COCCN(CCOC)c1ccc(Nc2ncc3c(C)c(C(C)=O)c(=O)n(C4CCCC4)c3n2)nc1 [Example 55, 6-Acetyl-2-{5-[bis-(2-methoxy-ethyl)-amino]-pyridin-2-ylamino}-8-cyclopentyl-5-methyl-8H-pyrido[2,3-d]pyrimidin-7-one]	–

Source: patent USRE47739E1, “2-(pyridin-2-ylamino)-pyrido[2,3-D]pyrimidin-7-ones” (Warner-Lambert Company LLC, priority 2002, dated 2019)
